Reference: the supplement of paper PMC10307832

Key:
Assay in all cases: relative viability (nuclei count vs DMSO), 5 days (fraction); higher = more cells survive
HCC-827 = system: HCC-827
Procedure, shortened: (§1)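 Relative viability divides the nuclei count in treated wells by that in vehicle wells. Lung cancer cell lines were seeded in 1536-well plates, dosed by pin tool the next day, and fixed and stained after 5 days in one step with final 0.05% Triton X-100, 1% formaldehyde and 1 ug/ml Hoechst. Dosing was a single drug or a fixed anchor-drug dose plus five library-drug doses (not always all listed) in √10 steps, and values are medians of duplicate plates imaged at 4×.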

EMC-BAC-2 = system: EMC-BAC-2
Procedure, shortened: as §1

NCI-H1755 = system: NCI-H1755
Procedure, shortened: as §1

LCLC-97TM1 = system: LCLC-97TM1
Procedure, shortened: as §1

NCI-H661 = system: NCI-H661
Procedure, shortened: as §1

NCI-H1355 = system: NCI-H1355
Procedure, shortened: as §1

HCC-15 = system: HCC-15
Procedure, shortened: as §1

NCI-H1792 = system: NCI-H1792
Procedure, shortened: as §1

RERF-LC-KJ = system: RERF-LC-KJ
Procedure, shortened: as §1

NCI-H1915 = system: NCI-H1915
Procedure, shortened: as §1

UMC-11 = system: UMC-11
Procedure, shortened: as §1

NCI-H838 = system: NCI-H838
Procedure, shortened: as §1

COR-L23 = system: COR-L23
Procedure, shortened: as §1

NCI-H520 = system: NCI-H520
Procedure, shortened: as §1

HARA = system: HARA
Procedure, shortened: as §1

NCI-H3122 = system: NCI-H3122
Procedure, shortened: as §1

SW 1573 = system: SW 1573
Procedure, shortened: as §1

LC-2-ad = system: LC-2-ad
Procedure, shortened: as §1

NCI-H2126 = system: NCI-H2126
Procedure, shortened: as §1

EKVX = system: EKVX
Procedure, shortened: as §1

H3255 = system: H3255
Procedure, shortened: as §1

NCI-H23 = system: NCI-H23
Procedure, shortened: as §1

## Cc1cn(-c2cc(NC(=O)c3ccc(C)c(Nc4nccc(-c5cccnc5)n4)c3)cc(C(F)(F)F)c2)cn1 [Nilotinib] + CS(=O)(=O)CCNCc1ccc(-c2ccc3ncnc(Nc4ccc(OCc5cccc(F)c5)c(Cl)c4)c3c2)o1 [Lapatinib] (partner 2 µM)
HCC-827; first compound 0.001 µM
  relative viability: 0.233
HCC-827; first compound 0.003162 µM
  relative viability: 0.184
HCC-827; first compound 0.01 µM
  relative viability: 0.154
HCC-827; first compound 0.1 µM
  relative viability: 0.184
EMC-BAC-2; first compound 0.001 µM
  relative viability: 0.834
EMC-BAC-2; first compound 0.003162 µM
  relative viability: 0.952
EMC-BAC-2; first compound 0.01 µM
  relative viability: 0.924
EMC-BAC-2; first compound 0.03162 µM
  relative viability: 0.784
EMC-BAC-2; first compound 0.1 µM
  relative viability: 0.606
NCI-H1755; first compound 0.001 µM
  relative viability: 1.02
NCI-H1755; first compound 0.003162 µM
  relative viability: 1.35
NCI-H1755; first compound 0.01 µM
  relative viability: 1.43
NCI-H1755; first compound 0.03162 µM
  relative viability: 0.986
NCI-H1755; first compound 0.1 µM
  relative viability: 0.551
LCLC-97TM1; first compound 0.001 µM
  relative viability: 0.777
LCLC-97TM1; first compound 0.003162 µM
  relative viability: 1.05
LCLC-97TM1; first compound 0.01 µM
  relative viability: 1.12
LCLC-97TM1; first compound 0.03162 µM
  relative viability: 1.16
LCLC-97TM1; first compound 0.1 µM
  relative viability: 0.268
NCI-H661; first compound 0.001 µM
  relative viability: 0.446
NCI-H661; first compound 0.003162 µM
  relative viability: 0.445
NCI-H661; first compound 0.01 µM
  relative viability: 0.549
NCI-H661; first compound 0.03162 µM
  relative viability: 0.42
NCI-H661; first compound 0.1 µM
  relative viability: 0.436
NCI-H1355; first compound 0.001 µM
  relative viability: 1.07
NCI-H1355; first compound 0.003162 µM
  relative viability: 1.32
NCI-H1355; first compound 0.01 µM
  relative viability: 1.2
NCI-H1355; first compound 0.03162 µM
  relative viability: 1.12
NCI-H1355; first compound 0.1 µM
  relative viability: 0.401
HCC-15; first compound 0.001 µM
  relative viability: 0.835
HCC-15; first compound 0.003162 µM
  relative viability: 1.07
HCC-15; first compound 0.01 µM
  relative viability: 1.05
HCC-15; first compound 0.03162 µM
  relative viability: 0.663
HCC-15; first compound 0.1 µM
  relative viability: 0.443
NCI-H1792; first compound 0.001 µM
  relative viability: 0.899
NCI-H1792; first compound 0.01 µM
  relative viability: 1.12
NCI-H1792; first compound 0.1 µM
  relative viability: 1.24
RERF-LC-KJ; first compound 0.001 µM
  relative viability: 0.874
RERF-LC-KJ; first compound 0.003162 µM
  relative viability: 0.986
RERF-LC-KJ; first compound 0.01 µM
  relative viability: 0.977
RERF-LC-KJ; first compound 0.03162 µM
  relative viability: 0.882
RERF-LC-KJ; first compound 0.1 µM
  relative viability: 0.888
NCI-H1915; first compound 0.001 µM
  relative viability: 0.986
NCI-H1915; first compound 0.003162 µM
  relative viability: 1.13
NCI-H1915; first compound 0.01 µM
  relative viability: 1.22
NCI-H1915; first compound 0.03162 µM
  relative viability: 0.98
NCI-H1915; first compound 0.1 µM
  relative viability: 0.517
UMC-11; first compound 0.001 µM
  relative viability: 0.995
UMC-11; first compound 0.003162 µM
  relative viability: 1.2
UMC-11; first compound 0.01 µM
  relative viability: 1.27
UMC-11; first compound 0.03162 µM
  relative viability: 0.851
UMC-11; first compound 0.1 µM
  relative viability: 0.255
NCI-H838; first compound 0.001 µM
  relative viability: 0.927
NCI-H838; first compound 0.003162 µM
  relative viability: 1.02
NCI-H838; first compound 0.01 µM
  relative viability: 0.925
NCI-H838; first compound 0.03162 µM
  relative viability: 0.817
NCI-H838; first compound 0.1 µM
  relative viability: 0.609
COR-L23; first compound 0.001 µM
  relative viability: 0.834
COR-L23; first compound 0.003162 µM
  relative viability: 1.53
COR-L23; first compound 0.01 µM
  relative viability: 1.7
COR-L23; first compound 0.03162 µM
  relative viability: 0.822
COR-L23; first compound 0.1 µM
  relative viability: 0.825
NCI-H520; first compound 0.001 µM
  relative viability: 0.678
NCI-H520; first compound 0.01 µM
  relative viability: 0.927
NCI-H520; first compound 0.03162 µM
  relative viability: 0.707
NCI-H520; first compound 0.1 µM
  relative viability: 0.383
HARA; first compound 0.001 µM
  relative viability: 0.685
HARA; first compound 0.003162 µM
  relative viability: 0.777
HARA; first compound 0.01 µM
  relative viability: 0.686
HARA; first compound 0.03162 µM
  relative viability: 0.8
HARA; first compound 0.1 µM
  relative viability: 0.454
NCI-H3122; first compound 0.001 µM
  relative viability: 0.988
NCI-H3122; first compound 0.003162 µM
  relative viability: 1.07
NCI-H3122; first compound 0.01 µM
  relative viability: 0.991
NCI-H3122; first compound 0.03162 µM
  relative viability: 1.01
NCI-H3122; first compound 0.1 µM
  relative viability: 0.98
SW 1573; first compound 0.003162 µM
  relative viability: 1.26
SW 1573; first compound 0.01 µM
  relative viability: 1.17
SW 1573; first compound 0.03162 µM
  relative viability: 1.1
SW 1573; first compound 0.1 µM
  relative viability: 1.27
LC-2-ad; first compound 0.001 µM
  relative viability: 0.901
LC-2-ad; first compound 0.003162 µM
  relative viability: 1.29
LC-2-ad; first compound 0.01 µM
  relative viability: 1.05
LC-2-ad; first compound 0.03162 µM
  relative viability: 0.894
LC-2-ad; first compound 0.1 µM
  relative viability: 0.293
NCI-H2126; first compound 0.001 µM
  relative viability: 0.729
NCI-H2126; first compound 0.003162 µM
  relative viability: 0.813
NCI-H2126; first compound 0.01 µM
  relative viability: 0.664
NCI-H2126; first compound 0.03162 µM
  relative viability: 0.858
NCI-H2126; first compound 0.1 µM
  relative viability: 0.507
EKVX; first compound 0.001 µM
  relative viability: 0.211
EKVX; first compound 0.003162 µM
  relative viability: 0.195
EKVX; first compound 0.01 µM
  relative viability: 0.214
EKVX; first compound 0.03162 µM
  relative viability: 0.187
EKVX; first compound 0.1 µM
  relative viability: 0.204
H3255; first compound 0.001 µM
  relative viability: 0.259
H3255; first compound 0.003162 µM
  relative viability: 0.224
H3255; first compound 0.01 µM
  relative viability: 0.236
H3255; first compound 0.03162 µM
  relative viability: 0.24
H3255; first compound 0.1 µM
  relative viability: 0.217
NCI-H23; first compound 0.001 µM
  relative viability: 1.01
NCI-H23; first compound 0.003162 µM
  relative viability: 1.13
NCI-H23; first compound 0.01 µM
  relative viability: 1.4
NCI-H23; first compound 0.03162 µM
  relative viability: 0.87
NCI-H23; first compound 0.1 µM
  relative viability: 0.704
